For series [1], the system named is intracellular Notch-1. Kind of series: Immunofluorescence of intracellular Notch-1 in MDA-MB-231 breast cancer cells. It counts as cell-based. The following applies: MDA-MB-231 cells; 0.01, 0.1, 1 or 10 μM. The procedure: (§1) MDA-MB-231 breast cancer cells were treated either with vehicle (control) or with 0.01 μM, 0.1 μM, 1 μM or 10 μM final concentration of doxorubicin, taxotere or KSA-101696. Then, the cells were cytospun to glass slides by centrifugation at 800 rpm for 3 min. Slides were then air-dried overnight and 4% formaldehyde fixed for 10 min. For staining, the cell membrane was permeabilized with 0.5% triton-X (Sigma) followed by overnight incubation with primary antibodies (anti-Numb, Abcam) and (anti-intracellular Notch-1, Cell Signalling) at 1:100. Cells were washed and stained with AlexaFluor goat anti-rabbit IgG 488 (Invitrogenat) 1:400 for 30 minutes. 300 nM DAPI (Invitrogen, Carlsbad, Calif., USA) was added for 10 minutes to counterstain the nuclei. Slides were mounted and immunofluorescence was visualized using BD Pathway 855 microscope.
(§2) Numb exerts its functional role on cell fate decisions by antagonizing Notch signaling activities. The molecular mechanisms underlying this relationship appear to rely on the ubiquitination of the membrane bound Notch-1 receptor and the subsequent degradation of its NICD (Notch intracellular domain) following receptor activation.

The test system of series [2] is Numb. Kind of series: Immunofluorescence of Numb in MDA-MB-231 breast cancer cells. The following applies: MDA-MB-231 cells; 0.01, 0.1, 1 or 10 μM. It counts as cell-based. The procedure:
as §1, §2

A short description of series [3]: Determination of LD50 value. Conditions: male, Swiss Webster Albino, mouse, in vivo, ip. The procedure: Swiss Webster Albino mice were housed in groups of 2 or 4 in elevated steel wire-mesh cages in a controlled room maintained at a temperature of 22±2° C., relative humidity of 50±10% and a 12 h light-dark cycle. Rodent diet chow (feed) provided by Grain Silos Flour Mills Organization, Riyadh, Saudi Arabia, and tap water for drinking were made available ad lib.
Male mice were divided into various groups (n=10 animals per group). Each group was administered a different dose of the respective compound via the intraperitoneal (i.p.) route. The dose range used was 100-5000 mg/kg.
During the observation periods there was a continuous record of any behavioral changes and clinical symptoms that caused by effects on the central and autonomic nervous systems, the respiratory and the cardiovascular systems or any other action on the gastrointestinal tract, the renal systems, eye, skin, skeletal muscles etc.
During the 72 hour observation period the number of animals that died in every group was recorded. The percentage of death calculated and converted to probits to calculate the LD50 value for each compound in mg/kg. The LD50 value reported in this study provided compounds in their liquid form in the provided concentrations.

The values that follow come from patent US10550130B2, “Benzo-thiazolo-imidazole compounds and uses thereof” (KING SAUD UNIVERSITY, priority 2015, dated 2020).

In the case of `CC(=O)O[C@@]12CO[C@@H]1C[C@H](O)[C@@]1(C)C(=O)[C@H](O)C3=C(C)[C@@H](OC(=O)[C@H](O)[C@@H](NC(=O)OC(C)(C)C)c4ccccc4)C[C@@](O)([C@@H](OC(=O)c4ccccc4)[C@H]21)C3(C)C` [taxotere], the Notch self-renewal pathway result in series [1] is “activated the Notch self-renewal pathway”. The “Numb expression (immunofluorescence microscopy)” value in series [2] is on record as “inhibited Numb expression”.

The term LD50 denotes the dose expected to kill half of the subjects tested. Low values mean greater toxicity, high ones lower toxicity. Regarding `COc1cccc2c1C(=O)c1c(O)c3c(c(O)c1C2=O)C[C@@](O)(C(=O)CO)C[C@@H]3O[C@H]1C[C@H](N)[C@H](O)[C@H](C)O1` [Doxorubicin], the Notch self-renewal pathway result in series [1] is “activated the Notch self-renewal pathway”. Also, the LD50 at 72 h in series [3] stood at 60 mg/kg. Besides, the “Numb expression (immunofluorescence microscopy)” value in series [2] is on record as “inhibited Numb expression”.
